Experimental data: US12053473B2, “Benzylamino substituted quinazolines and derivatives as SOS1 inhibitors” (priority 2016, dated 2024)

target: SOS1 and KRAS G12D (protein-protein interaction) (Homo sapiens, UniProt Q07889); test: KRAS::SOS1 AlphaScreen binding assay; details: not given
Protocol: KRAS::SOS1 AlphaScreen Binding Assay
Low IC50 values are indicative of high potency of the SOS1 inhibitor compound in this assay setting:
10 nM (final assay concentration) KRAS G12D, 10 μM (final assay concentration) GDP and 5 nM (final assay concentration) GST-SOS1 are mixed in assay buffer prior to use and kept at room temperature.
AlphaLSA Glutathione Acceptor Beads and AlphaScreen Streptavidin Donor Beads are mixed in assay buffer at a concentration of 10 μg/mL (final assay concentration) each prior to use and kept at room temperature.
Compounds are diluted to a final start concentration of 100 μM and are tested in duplicate. […] For compound a start concentration of 100 μM, 150 nL of compound solution is transferred per well in 11 concentrations in duplicate with serial 1:5 dilutions.
The assay is run using a fully automated robotic system in a darkened room below 100 Lux. 10 μL of KRAS::SOS1 GDP mix is added into columns 1-24 to the 150 nL of compound solution (final dilution in the assay 1:100, final DMSO concentration 1%).
After a 30 minute incubation time 5 μL of bead mix is added into columns 1-23. Plates are kept at room temperature in a darkened incubator. After a further 60 minute incubation, the signal is measured using a PerkinElmer Envision HTS Multilabel Reader using the AlphaScreen specifications from PerkinElmer. Each plate contains the following controls: • diluted DMSO+KRAS::SOS1 GDP mix+bead mix • diluted DMSO+KRAS::SOS1 GDP mix Result Calculation:
IC50 values are calculated and analyzed using a 4 parametric logistic model.

| Structure (SMILES) | IC50 |
| --- | --- |
| COCCN1CCN(C(=O)[C@H]2CC[C@@H](c3cc4c(N[C@H](C)c5cc(N)cc(C(F)(F)F)c5F)nc(C)nc4cc3OC)CC2)CC1 [I-247] | 18 nM |

same assay, conditions: assay buffer with 100 μM EDTA (values marked with an asterisk); read-out: IC50 (SOS1)

| Structure (SMILES) | IC50 |
| --- | --- |
| Cc1nc(N[C@H](C)c2cccc(C(F)(F)F)c2)c2cc(-c3cnn(C4CCNCC4)c3)ccc2n1 [I-168] | 48 nM |
| Cc1nc(N[C@H](C)c2cccc(Cl)c2F)c2cc(C3=CCNCC3)ccc2n1 [I-170] | 24 nM |
| Cc1nc(N[C@H](C)c2cccc(C(F)(F)F)c2)c2cc(C3=CCNCC3)ccc2n1 [I-171] | 18 nM |
| Cc1nc(N[C@H](C)c2cccc(Cl)c2)c2cc(C3=CCNCC3)ccc2n1 [I-172] | 39 nM |
| Cc1nc(N[C@H](C)c2cccc(C(F)(F)F)c2)c2cc(C3CCNCC3)ccc2n1 [I-182] | 22 nM |
| Cc1cccc([C@@H](C)Nc2nc(C)nc3ccc(C4CCNCC4)cc23)c1 [I-183] | 38 nM |

same assay, conditions: assay buffer without EDTA (values not marked with an asterisk); read-out: IC50 (SOS1)

| Structure (SMILES) | IC50 |
| --- | --- |
| COc1cc2nc(C)nc(N[C@H](C)c3cccc(C4(O)COC4)c3)c2cc1C1CCN(C(C)=O)CC1 [I-167] | 18 nM |
| Cc1cccc([C@@H](C)Nc2nc(C)nc3cc(C)c(C4CCNCC4)cc23)c1 [I-176] | 46 nM |
| COc1cc2nc(C)nc(N[C@H](C)c3cccc(C(F)(F)F)c3)c2cc1-c1ccc(C(=O)N(C)C)nc1 [I-189] | 23 nM |
| COc1cc2nc(C)nc(N[C@H](C)c3cccc(C)c3)c2cc1-c1ccc(C(=O)N(C)C)nc1 [I-190] | 34 nM |
| COc1cc2nc(C)nc(N[C@H](C)c3cccc(C(F)(F)F)c3)c2cc1-c1ccc(C(=O)N(C)C)cn1 [I-191] | 35 nM |

same assay, conditions: read-out: IC50 (SOS1)

| Structure (SMILES) | IC50 |
| --- | --- |
| COc1cc2nc(C)nc(N[C@H](C)c3cccc(C(F)(F)F)c3)c2cc1-c1ccc(C(=O)N(C)CCO)cc1 [I-214] | 40 nM |
| COc1cc2nc(C)nc(N[C@H](C)c3cccc(C(F)(F)F)c3)c2cc1-c1ccc(C(=O)N2CCOCC2)cc1 [I-215] | 37 nM |
| COc1cc2nc(C)nc(N[C@H](C)c3cccc(C(F)(F)F)c3)c2cc1-c1ccc(C(=O)N(C)C)c(C)c1 [I-216] | 48 nM |
| COc1cc(-c2cc3c(N[C@H](C)c4cccc(C(F)(F)F)c4)nc(C)nc3cc2OC)ccc1C(=O)N(C)C [I-217] | 43 nM |
| COCC(=O)N1CC=C(c2ccc3nc(C)nc(N[C@H](C)c4cc(N)cc(C(F)(F)F)c4)c3c2)CC1 [I-220] | 3 nM |
| CC(=O)N1CC=C(c2ccc3nc(C)nc(N[C@H](C)c4cccc(C(F)(F)F)c4)c3c2)CC1 [I-221] | 11 nM |
| Cc1nc(N[C@H](C)c2cccc(C(F)(F)F)c2)c2cc(C3=CCC(C(=O)N(C)C)CC3)ccc2n1 (some centres unmarked) [I-222] | 19 nM |
| Cc1nc(N[C@H](C)c2cccc(C(F)(F)F)c2)c2cc(C3=CCC(C(=O)N4CCN(C)CC4)CC3)ccc2n1 (some centres unmarked) [I-223] | 27 nM |
| COc1cc2nc(C)nc(N[C@H](C)c3cc(N)cc(C(F)(F)F)c3)c2cc1-c1ccc(C(=O)N(C)CCO)nc1 [I-224] | 4 nM |
| COc1cc2nc(C)nc(N[C@H](C)c3cccc(C(F)(F)F)c3)c2cc1C1CCC(C(=O)N(C)CC(O)CO)CC1 (some centres unmarked) [I-227] | 27 nM |
| Cc1nc(N[C@H](C)c2cccc(C(F)(F)F)c2)c2cc([C@H]3CC[C@H](C(=O)N(C)C)CC3)ccc2n1 [I-229] | 7 nM |
| COC1CN(C(=O)[C@H]2CC[C@H](c3ccc4nc(C)nc(N[C@H](C)c5cccc(C(F)(F)F)c5)c4c3)CC2)C1 [I-230] | 32 nM |
| Cc1nc(N[C@H](C)c2cccc(C(F)(F)F)c2)c2cc([C@H]3CC[C@H](C(=O)N4CC(F)C4)CC3)ccc2n1 [I-231] | 19 nM |
| Cc1nc(N[C@H](C)c2cccc(C(F)(F)F)c2)c2cc([C@H]3CC[C@@H](C(=O)N(C)C4COC4)CC3)ccc2n1 [I-233] | 38 nM |
| Cc1nc(N[C@H](C)c2cc(N)cc(C(F)(F)F)c2)c2cc([C@H]3CC[C@H](C(=O)N4CCOCC4)CC3)ccc2n1 [I-234] | 2 nM |
| Cc1nc(N[C@H](C)c2cc(N)cc(C(F)(F)F)c2)c2cc([C@H]3CC[C@@H](C(=O)N4CCOCC4)CC3)ccc2n1 [I-235] | 8 nM |
| COCCN(C)C(=O)[C@H]1CC[C@H](c2ccc3nc(C)nc(N[C@H](C)c4cc(N)cc(C(F)(F)F)c4)c3c2)CC1 [I-236] | 2 nM |
| COCCN(C)C(=O)[C@H]1CC[C@@H](c2ccc3nc(C)nc(N[C@H](C)c4cc(N)cc(C(F)(F)F)c4)c3c2)CC1 [I-237] | 9 nM |
| CCN(C)C(=O)[C@H]1CC[C@H](c2ccc3nc(C)nc(N[C@H](C)c4cc(N)cc(C(F)(F)F)c4)c3c2)CC1 [I-238] | 3 nM |
| CCN(C)C(=O)[C@H]1CC[C@@H](c2ccc3nc(C)nc(N[C@H](C)c4cc(N)cc(C(F)(F)F)c4)c3c2)CC1 [I-239] | 15 nM |
| COCCN1CCN(C(=O)[C@H]2CC[C@H](c3ccc4nc(C)nc(N[C@H](C)c5cc(N)cc(C(F)(F)F)c5)c4c3)CC2)CC1 [I-240] | 2 nM |
| COCCN1CCN(C(=O)[C@H]2CC[C@@H](c3ccc4nc(C)nc(N[C@H](C)c5cc(N)cc(C(F)(F)F)c5)c4c3)CC2)CC1 [I-241] | 7 nM |
| Cc1nc(N[C@H](C)c2cc(N)cc(C(F)(F)F)c2)c2cc([C@H]3CC[C@H](C(=O)N(C)[C@@H]4CCOC4)CC3)ccc2n1 [I-242] | 5 nM |
| Cc1nc(N[C@H](C)c2cc(N)cc(C(F)(F)F)c2)c2cc([C@H]3CC[C@@H](C(=O)N(C)[C@@H]4CCOC4)CC3)ccc2n1 [I-243] | 9 nM |

| Structure (SMILES) | IC50 |
| --- | --- |
| COc1cc2nc(C)nc(N[C@H](C)c3cc(N)cc(C(F)(F)F)c3F)c2cc1[C@H]1CC[C@H](C(=O)N(C)C)CC1 [I-244] | 2 nM |
| COc1cc2nc(C)nc(N[C@H](C)c3cc(N)cc(C(F)(F)F)c3F)c2cc1[C@H]1CC[C@@H](C(=O)N(C)C)CC1 [I-245] | 35 nM |
| COCCN1CCN(C(=O)[C@H]2CC[C@H](c3cc4c(N[C@H](C)c5cc(N)cc(C(F)(F)F)c5F)nc(C)nc4cc3OC)CC2)CC1 [I-246] | 2 nM |
| COc1cc2nc(C)nc(N[C@H](C)c3cc(N)cc(C(F)(F)F)c3C)c2cc1[C@H]1CC[C@H](C(=O)N(C)C)CC1 [I-248] | 2 nM |
| COc1cc2nc(C)nc(N[C@H](C)c3cc(N)cc(C(F)(F)F)c3C)c2cc1[C@H]1CC[C@@H](C(=O)N(C)C)CC1 [I-249] | 38 nM |
| Cc1nc(N[C@H](C)c2cc(N)cc(C(F)(F)F)c2)c2cc([C@H]3CC[C@H](C(=O)N(C)[C@H]4CCOC4)CC3)ccc2n1 [I-250] | 4 nM |
| Cc1nc(N[C@H](C)c2cc(N)cc(C(F)(F)F)c2)c2cc([C@H]3CC[C@@H](C(=O)N(C)[C@H]4CCOC4)CC3)ccc2n1 [I-251] | 10 nM |
| Cc1nc(N[C@H](C)c2cc(N)cc(C(F)(F)F)c2)c2cc([C@H]3CC[C@@H](C(=O)N(C)CCO)CC3)ccc2n1 [I-253] | 7 nM |
| Cc1nc(N[C@H](C)c2cc(N)cc(C(F)(F)F)c2)c2cc([C@H]3CC[C@H](C(=O)N(C)C[C@H](C)O)CC3)ccc2n1 [I-254] | 2 nM |
| Cc1nc(N[C@H](C)c2cc(N)cc(C(F)(F)F)c2)c2cc([C@H]3CC[C@@H](C(=O)N(C)C[C@H](C)O)CC3)ccc2n1 [I-255] | 8 nM |
| Cc1nc(N[C@H](C)c2cc(N)cc(C(F)(F)F)c2)c2cc([C@H]3CC[C@H](C(=O)N(C)C[C@@H](C)O)CC3)ccc2n1 [I-256] | 3 nM |
| Cc1nc(N[C@H](C)c2cc(N)cc(C(F)(F)F)c2)c2cc([C@H]3CC[C@H](C(=O)N(C)CC(C)(C)O)CC3)ccc2n1 [I-258] | 3 nM |
| Cc1cccc([C@@H](C)Nc2nc(C)nc3ccc([C@H]4CC[C@H](C(=O)N(C)C)CC4)cc23)c1 [I-264] | 13 nM |
| Cc1cccc([C@@H](C)Nc2nc(C)nc3ccc([C@H]4CC[C@H](C(=O)N5CC(C#N)C5)CC4)cc23)c1 [I-265] | 36 nM |
| Cc1cccc([C@@H](C)Nc2nc(C)nc3ccc([C@H]4CC[C@H](C(=O)N5CCC(O)C5)CC4)cc23)c1 (some centres unmarked) [I-266] | 25 nM |
| COc1cc2nc(C)nc(N[C@H](C)c3cccc(C)c3)c2cc1[C@H]1CC[C@H](C(=O)N(C)C)CC1 [I-267] | 9 nM |
| CC(=O)N1CCC(c2cc(C)c3nc(C)nc(N[C@H](C)c4cccc(C)c4)c3c2)CC1 [I-269] | 24 nM |
| COCC(=O)N1CCC(c2cc(C)c3nc(C)nc(N[C@H](C)c4cccc(C)c4)c3c2)CC1 [I-270] | 21 nM |
| CC(=O)N1CCC(c2cc3c(N[C@H](C)c4cccc(C)c4)nc(C)nc3cc2C)CC1 [I-271] | 24 nM |
| COCC(=O)N1CCC(c2cc3c(N[C@H](C)c4cccc(C)c4)nc(C)nc3cc2C)CC1 [I-272] | 34 nM |
| Cc1nc(N[C@H](C)c2cccc(C(F)(F)F)c2)c2cc(C3CCN(CC(=O)N(C)C)CC3)ccc2n1 [I-273] | 11 nM |
| COc1cc2nc(C)nc(N[C@H](C)c3cc(N)cc(C(F)(F)F)c3F)c2cc1C1CCN(C(C)=O)CC1 [I-278] | 2 nM |
| CC(=O)N1CCC(c2ccc3nc(C)nc(N[C@H](C)c4cccc(C(F)(F)F)c4)c3c2)CC1 [I-280] | 17 nM |
| COc1cc2nc(C)nc(N[C@H](C)c3cccc(C)c3)c2cc1C1CCN(C(C)=O)CC1 [I-281] | 12 nM |

same assay, conditions: values marked with * in the table; read-out: IC50 (SOS1)

| Structure (SMILES) | IC50 |
| --- | --- |
| COCC(=O)N1CCC(n2cc(-c3ccc4nc(C)nc(N[C@H](C)c5cccc(C)c5)c4c3)cn2)CC1 [I-219] | 34 nM |
| COCC(=O)N1CCC(c2ccc3nc(C)nc(N[C@H](C)c4cccc(C)c4)c3c2)CC1 [I-277] | 22 nM |
